The source made the active and inactive calls. The rule behind the calls is not given here.
Tests used:
[1] = test system: Plasmodium falciparum; assay: Antiplasmodial activity against Plasmodium falciparum 3D7 trophozoite infected in human RBC assessed as partial induction of hemolysis at 0.1 to 100 uM after 1 hrs by spectrophotometry in presence of > 100 ug/ml annexin V and calcium; format: functional, organism-based
[2] = test system: Plasmodium falciparum; assay: Antiplasmodial activity against Plasmodium falciparum 3D7 assessed as reduction in parasite viability at 6.2 uM after 45 hrs by fluorospectrometry; format: functional; conditions: 3D7, 45 h
[3] = test system: Plasmodium falciparum; assay: Antiplasmodial activity against Plasmodium falciparum 3D7 trophozoites infected in human RBC assessed as induction of hemolysis at 5 to 20 uM after 2 hrs by spectrophotometry; format: functional, organism-based
[4] = test system: Plasmodium falciparum; assay: Antiplasmodial activity against Plasmodium falciparum 3D7 schizonts infected in human RBC assessed as induction of hemolysis at 5 to 20 uM after 2 hrs by spectrophotometry; format: functional, organism-based
[5] = test system: Plasmodium falciparum; assay: Antiplasmodial activity against Plasmodium falciparum 3D7 infected in human RBC assessed as appearance of hemozoin crystals at 10 uM after 1 hrs by light microscopy; format: functional, organism-based
[6] = test system: Plasmodium falciparum; assay: Antiplasmodial activity against Plasmodium falciparum 3D7 trophozoites infected in human RBC assessed as induction of hemolysis at 10 uM after 90 min by spectrophotometry; format: functional, organism-based
[7] = test system: Plasmodium falciparum; assay: Antiplasmodial activity against Plasmodium falciparum 3D7 infected in human RBC assessed as permeabilization of plasma membrane at 5 uM after 20 to 120 min by sytox green dye uptake assay; format: functional, organism-based
[8] = test system: Plasmodium falciparum; assay: Antiplasmodial activity against Plasmodium falciparum 3D7 infected in human RBC assessed as permeabilization of plasma membrane at 10 uM after 20 to 120 min by sytox green dye uptake assay; format: functional, organism-based
[9] = test system: Plasmodium falciparum; assay: Antiplasmodial activity against Plasmodium falciparum 3D7 infected in human RBC assessed as permeabilization of plasma membrane at > 20 uM after 20 to 120 min by sytox green dye uptake assay; format: functional, organism-based
[10] = test system: Plasmodium falciparum; assay: Antiplasmodial activity against Plasmodium falciparum 3D7 trophozoite infected in human RBC assessed as partial induction of hemolysis at 0.1 to 100 uM after 1 hrs by spectrophotometry in presence of 100 ug/ml annexin V and calcium; format: functional, organism-based
[11] = test system: Plasmodium falciparum; assay: Antiplasmodial activity against Plasmodium falciparum 3D7 assessed as reduction in parasite viability after 45 hrs by fluorospectrometry; format: functional, organism-based
[12] = Cytotoxicity against human RBC assessed as induction of hemolysis at 5 to 20 uM after 2 hrs by spectrophotometry; format: cell-based; conditions: erythrocyte

Substance: H-KILRGVCKKIMRTFLRRISKDILTGKK-OH
- Activity [1]: inactive
- inhibition at 6.2 µM [2]: 50%
- Activity [3]: Active
- Activity [4]: Active
- Activity [5]: Active
- Activity [6]: Active
- Activity [7]: Active
- Activity [8]: Active
- Activity [9]: inactive
- Activity [10]: Active
- inhibition [11]: Dose-dependent effect
- Activity [12]: Non-toxic

Source: ChEMBL document CHEMBL1275415, “The antimicrobial peptide NK-2, the core region of mammalian NK-lysin, kills intraerythrocytic Plasmodium falciparum” (Antimicrob Agents Chemother, 2008)
